Where two headings read alike, the source gives them in different places.
Experiments:
[1] = tested on: OT-1 antigen-specific CD8+ T cells with MC38 tumor cells; experiment: Murine Cytotoxic T Lymphocyte Assay (IFN-γ); assay type: cell-based, mouse
Source text: An antigen-specific cytolytic T-cell (CTL) assay was developed to evaluate functionally the ability of DGKα and DGKζ inhibitors to enhance effector T cell mediated tumor cell killing activity. CD8+ T-cells isolated from the OT-1 transgenic mouse recognize antigen presenting cells, MC38, that present the ovalbumin derived peptide […]. Recognition of the cognate antigen initiates the cytolytic activity of the OT-1 antigen-specific CD8+ T cells.
Functional CTL cells were generated as follows: OT-1 splenocytes from 8-12 week old mice were isolated and expanded in the presence of the […] peptide at 1 μg/mL and mIL2 at 10 U/mL. After three days, fresh media with mIL2 U/mL was added. On day 5 of the expansion, the CD8+ T cells were isolated and ready for use. Activated CTL cells may be stored frozen for 6 months. […] The cells were washed (3×) with fresh media to remove excess peptide. Finally, CTL cells that were pretreated with DGK inhibitors for 1 hour in a 96-well U bottom plate were combined with the antigen loaded MC38 tumor cells at a 1:10 ratio. The cells were then spun at 700 rpm for 5 min and placed in an incubator overnight at 37° C. After 24 hours, the supernatant was collected for analysis of IFN-γ cytokine levels by AlphaLisa purchased from Perkin Elmer.

human DGKα = human DGKα (Homo sapiens (Human), UniProt P23743); experiment: DGKα LIPGLO assay (extruded liposome substrate); assay type: biochemical
Method in brief: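 Human full-length DGKα, His-tagged and produced in Sf9 cells, assayed at 20 nM (4× stock) on extruded liposomes of PS, 0.25 mM DAG and 2.75 mM PC, preincubated 10 min. Reaction started with 300 μM ATP (stock) and ran 1 h in MOPS pH 7.5/MgCl2/CaCl2/DTT buffer.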

human DGKζ = human DGKζ (Homo sapiens (Human), UniProt Q13574); experiment: DGKζ assay (detergent/lipid micelle substrate); assay type: biochemical
Method in brief: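 Enzymes were baculovirus/Sf9 full-length human DGKα or DGKζ with His tag. The substrate was PS/DAG in octyl glucoside micelles, in MOPS pH 7.5 buffer with NaCl, MgCl2, CaCl2 and DTT.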

[2] = Mus musculus, MC-38, read-out: msCTL INF-γ IC50, murine CTL IFN-γ (table title reads INF-γ Whole Blood Normalized Agonist EC50)
[3] = detergent/lipid micelle substrate, read-out: DGKζ IC50
[4] = DGKζ IC50, detergent/lipid micelle substrate
[5] = read-out: msCTL INF-γ IC50, murine CTL IFN-γ (table title reads INF-γ Whole Blood Normalized Agonist EC50)

human DGKα, sequence (P23743 other isoform, or with tags, fused parts or gaps): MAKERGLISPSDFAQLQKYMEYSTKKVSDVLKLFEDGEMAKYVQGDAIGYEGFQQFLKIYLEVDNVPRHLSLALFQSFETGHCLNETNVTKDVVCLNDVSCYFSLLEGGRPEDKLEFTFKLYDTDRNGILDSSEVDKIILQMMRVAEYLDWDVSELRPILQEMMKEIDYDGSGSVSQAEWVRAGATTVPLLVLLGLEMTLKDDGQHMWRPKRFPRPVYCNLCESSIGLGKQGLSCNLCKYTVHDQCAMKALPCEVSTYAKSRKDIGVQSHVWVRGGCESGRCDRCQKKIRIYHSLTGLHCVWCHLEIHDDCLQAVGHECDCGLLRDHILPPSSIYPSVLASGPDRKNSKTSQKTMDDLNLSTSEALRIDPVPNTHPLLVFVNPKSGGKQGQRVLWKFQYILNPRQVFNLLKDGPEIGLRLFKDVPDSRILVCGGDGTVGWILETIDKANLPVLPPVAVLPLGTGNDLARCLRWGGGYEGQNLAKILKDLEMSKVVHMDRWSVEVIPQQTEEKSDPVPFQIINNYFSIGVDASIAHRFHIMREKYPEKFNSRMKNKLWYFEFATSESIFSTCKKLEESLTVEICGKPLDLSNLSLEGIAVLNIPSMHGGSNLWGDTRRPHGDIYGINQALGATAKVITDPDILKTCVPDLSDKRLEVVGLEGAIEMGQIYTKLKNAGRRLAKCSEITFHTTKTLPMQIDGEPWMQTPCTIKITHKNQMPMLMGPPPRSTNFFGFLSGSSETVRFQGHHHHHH
human DGKζ, sequence (Q13574 other isoform, or with tags, fused parts or gaps): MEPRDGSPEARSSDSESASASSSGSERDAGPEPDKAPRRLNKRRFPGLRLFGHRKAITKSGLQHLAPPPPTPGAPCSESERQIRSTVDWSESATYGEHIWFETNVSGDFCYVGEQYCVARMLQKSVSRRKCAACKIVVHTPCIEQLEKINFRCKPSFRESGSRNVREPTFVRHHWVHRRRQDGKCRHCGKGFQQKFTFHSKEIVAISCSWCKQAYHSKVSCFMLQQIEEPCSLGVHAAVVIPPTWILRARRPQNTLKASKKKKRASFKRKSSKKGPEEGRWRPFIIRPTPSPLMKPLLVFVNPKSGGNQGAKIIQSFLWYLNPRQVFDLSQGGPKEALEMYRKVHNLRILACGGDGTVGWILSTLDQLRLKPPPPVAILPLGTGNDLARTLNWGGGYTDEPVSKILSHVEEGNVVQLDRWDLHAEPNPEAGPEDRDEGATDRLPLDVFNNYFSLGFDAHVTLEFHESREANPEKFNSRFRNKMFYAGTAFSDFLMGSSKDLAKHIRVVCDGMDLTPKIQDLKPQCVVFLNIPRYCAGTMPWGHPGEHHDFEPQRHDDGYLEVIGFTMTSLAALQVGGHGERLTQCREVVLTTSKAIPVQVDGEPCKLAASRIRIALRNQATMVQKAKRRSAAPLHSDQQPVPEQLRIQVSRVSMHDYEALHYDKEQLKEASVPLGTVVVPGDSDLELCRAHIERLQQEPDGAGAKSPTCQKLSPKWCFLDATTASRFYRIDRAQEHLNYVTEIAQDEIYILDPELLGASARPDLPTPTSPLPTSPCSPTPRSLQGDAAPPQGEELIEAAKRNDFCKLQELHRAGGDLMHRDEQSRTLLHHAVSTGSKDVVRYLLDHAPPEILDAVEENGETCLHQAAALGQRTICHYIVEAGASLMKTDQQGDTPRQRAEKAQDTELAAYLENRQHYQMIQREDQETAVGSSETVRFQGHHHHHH

| SMILES | IC50 [1, 2] | IC50 (human DGKα) | IC50 (human DGKζ; [3]) | IC50 (human DGKζ; [4]) | IC50 [1, 5] |
| --- | --- | --- | --- | --- | --- |
| COc1ccc2c(n1)c(N1CCN(C(c3ccc(F)cc3)c3ccc(F)cc3OC)CC1)c(C#N)c(=O)n2C (racemic) [Example 412, 4-{4-[(4-fluoro-2-methoxyphenyl)(4-fluorophenyl)methyl]piperazin-1-yl}-6-methoxy-1-methyl-2-oxo-1,2-dihydro-1,5-naphthyridine-3-carbonitrile] | 360 nM | 1800 nM |  |  |  |
| COc1ccccc1C(c1ccc(F)cc1)N1CCN(c2c(C#N)c(=O)n(C)c3ccc(Br)nc23)CC1 (single isomer, unassigned) [Example 13, 6-bromo-4-{4-[(4-fluorophenyl)(2-methoxyphenyl)methyl]piperazin-1-yl}-1-methyl-2-oxo-1,2-dihydro-1,5-naphthyridine-3-carbonitrile] | 640 nM | 5400 nM | > 240000 nM |  |  |
| COc1cc(F)ccc1C(c1ccc(F)cc1)N1CCN(c2c(C#N)c(=O)n(C)c3ccc(Br)nc23)CC1 (single isomer, unassigned) [Example 17, 6-bromo-4-{4-[(4-fluoro-2-methoxyphenyl)(4-fluorophenyl)methyl]piperazin-1-yl}-1-methyl-2-oxo-1,2-dihydro-1,5-naphthyridine-3-carbonitrile] | 190 nM | 3500 nM | 180000 nM |  |  |
| CC(c1ccc(F)cc1)N1CCN(c2c([N+](=O)[O-])c(=O)n(C)c3ccc(C#N)nc23)CC1 (single isomer, unassigned) [Example 44, 8-(4-(1-(4-fluorophenyl)ethyl)piperazin-1-yl)-5-methyl-7-nitro-6-oxo-5,6-dihydro-1,5-naphthyridine-2-carbonitrile] | 130 nM | 370 nM | 8900 nM |  |  |
| C#CCn1c(=O)c([N+](=O)[O-])c(N2CCN(C(c3ccc(F)cc3)c3ccc(F)cc3O)CC2)c2nc(C#N)ccc21 (single isomer, unassigned) [Example 121, 8-(4-((4-fluoro-2-hydroxyphenyl)(4-fluorophenyl)methyl)piperazin-1-yl)-7-nitro-6-oxo-5-(prop-2-yn-1-yl)-5,6-dihydro-1,5-naphthyridine-2-carbonitrile] | 50 nM | 6400 nM | 180 nM |  |  |
| COc1cc(F)ccc1C(c1ccc(F)cc1)N1CCN(c2c([N+](=O)[O-])c(=O)n(C)c3ccc(C#N)nc23)CC1 (single isomer, unassigned) [Example 124, 8-(4-((4-fluoro-2-methoxyphenyl)(4-fluorophenyl)methyl)piperazin-1-yl)-5-methyl-7-nitro-6-oxo-5,6-dihydro-1,5-naphthyridine-2-carbonitrile] | 40 nM | 750 nM |  | 900 nM |  |
| C#CCn1c(=O)c([N+](=O)[O-])c(N2CCN(C(C)c3ccc(F)cc3)CC2)c2nc(C#N)ccc21 (single isomer, unassigned) [Example 136, 8-(4-(1-(4-fluorophenyl)ethyl)piperazin-1-yl)-7-nitro-6-oxo-5-(prop-2-yn-1-yl)-5,6-dihydro-1,5-naphthyridine-2-carbonitrile] |  | 790 nM |  | 870 nM | 90 nM |
| C#CCn1c(=O)c([N+](=O)[O-])c(N2CCN(C(C)c3ccc(F)cc3)CC2)c2nc(C#N)ccc21 (single isomer, unassigned) [Example 137, 8-(4-(1-(4-fluorophenyl)ethyl)piperazin-1-yl)-7-nitro-6-oxo-5-(prop-2-yn-1-yl)-5,6-dihydro-1,5-naphthyridine-2-carbonitrile] |  | 1500 nM |  | 4800 nM | 230 nM |
| C#CCn1c(=O)c([N+](=O)[O-])c(N2CCN(C(CC)c3ccc(F)cc3)CC2)c2nc(C#N)ccc21 (single isomer, unassigned) [Example 141, 8-{4-[1-(4-fluorophenyl)propyl]piperazin-1-yl}-7-nitro-6-oxo-5-(prop-2-yn-1-yl)-5,6-dihydro-1,5-naphthyridine-2-carbonitrile] | 290 nM | 580 nM | 8900 nM |  |  |
| CC(C)C(c1ccc(F)cc1)N1CCN(c2c(C#N)c(=O)n(C)c3ccc(Cl)nc23)CC1 (single isomer, unassigned) [Example 315, 6-chloro-4-{4-[1-(4-fluorophenyl)-2-methylpropyl]piperazin-1-yl}-methyl-2-oxo-1,2-dihydro-1,5-naphthyridine-3-carbonitrile] |  | > 240000 nM | > 240000 nM |  |  |
| Cn1c(=O)c(C#N)c(N2CCN(C(CC(C)(C)C)c3ccc(F)cc3)CC2)c2nc(Cl)ccc21 (single isomer, unassigned) [Example 377, 6-chloro-4-{4-[1-(4-fluorophenyl)-3,3-dimethylbutyl]piperazin-1-yl}-1-methyl-2-oxo-1,2-dihydro-1,5-naphthyridine-3-carbonitrile] |  | > 240000 nM |  |  |  |
| Cn1c(=O)c(C#N)c(N2CCN(C(CC(C)(C)C)c3ccc(F)cc3)CC2)c2nc(Cl)ccc21 (single isomer, unassigned) [Example 378, 6-chloro-4-{4-[1-(4-fluorophenyl)-3,3-dimethylbutyl]piperazin-1-yl}-1-methyl-2-oxo-1,2-dihydro-1,5-naphthyridine-3-carbonitrile] | 10000 nM | 2200 nM |  |  |  |
| Cn1c(=O)c(C#N)c(N2CCN(C(c3ccc(F)cc3)C3CCC3)CC2)c2nc(Cl)ccc21 (single isomer, unassigned) [Example 382, 6-chloro-4-{4-[cyclobutyl(4-fluorophenyl)methyl]piperazin-1-yl}-1-methyl-2-oxo-1,2-dihydro-1,5-naphthyridine-3-carbonitrile] |  | 760 nM |  |  |  |
| Cn1c(=O)c(C#N)c(N2CCN(C(c3ccc(F)cc3)C3CCC3)CC2)c2nc(Cl)ccc21 (single isomer, unassigned) [Example 383, 6-chloro-4-{4-[cyclobutyl(4-fluorophenyl)methyl]piperazin-1-yl}-1-methyl-2-oxo-1,2-dihydro-1,5-naphthyridine-3-carbonitrile] | 10000 nM | 220 nM |  |  |  |
| CC(c1ccc(F)cc1)N1CCN(c2c(C#N)c(=O)n(C)c3ccc(Cl)nc23)CC1 (single isomer, unassigned) [Example 387, 6-chloro-4-{4-[1-(4-fluorophenyl)ethyl]piperazin-1-yl}-1-methyl-2-oxo-1,2-dihydro-1,5-naphthyridine-3-carbonitrile] |  | 270 nM | > 240000 nM |  |  |
| CC(c1ccc(F)cc1)N1CCN(c2c(C#N)c(=O)n(C)c3ccc(Cl)nc23)CC1 (single isomer, unassigned) [Example 388, 6-chloro-4-{4-[1-(4-fluorophenyl)ethyl]piperazin-1-yl}-1-methyl-2-oxo-1,2-dihydro-1,5-naphthyridine-3-carbonitrile] |  | 51 nM | > 240000 nM |  |  |
| COc1cc(F)ccc1C(c1ccc(F)cc1)N1CCN(c2c(C#N)c(=O)n(C)c3ccc(C#N)nc23)CC1 (single isomer, unassigned) [Example 406, 8-{4-[(4-fluoro-2-methoxyphenyl)(4-fluorophenyl)methyl]piperazin-1-yl}-5-methy-6-oxo-5,6-dihydro-L5-naphthyridine-2,7-dicarbonitrile] |  | 13000 nM |  |  | 160 nM |
| COc1cc(F)ccc1C(c1ccc(F)cc1)N1CCN(c2c(C#N)c(=O)n(C)c3ccc(C#N)nc23)CC1 (single isomer, unassigned) [Example 407, 8-{4-[(4-fluoro-2-methoxyphenyl)(4-fluorophenyl)methyl]piperazin-1-yl}-5-methy-6-oxo-5,6-dihydro-L5-naphthyridine-2,7-dicarbonitrile] |  | 960 nM |  |  | 40 nM |
| Cn1c(=O)c(C#N)c(N2CCN(C(c3ccc(F)cc3)c3ccccc3O)CC2)c2nc(C#N)ccc21 (stereo not drawn) [Example 11, 8-{4-[(4-fluorophenyl)(2-hydroxyphenyl)methyl]piperazin-1-yl}-5-methyl-6-oxo-5,6-dihydro-1,5-naphthyridine-2,7-dicarbonitrile] |  | 1800 nM | 4000 nM |  |  |
| CCCCn1c(=O)c([N+](=O)[O-])c(N2CCN(C(c3ccccc3)c3ccccc3)CC2)c2ncccc21 [Example 177, 4-(4-benzhydrylpiperazin-1-yl)-1-butyl-3-nitro-1,5-naphthyridin-2(1H)-one] | 10000 nM | > 240000 nM |  |  |  |
| Cn1c(=O)c([N+](=O)[O-])c(N2CCN(Cc3cccc4ccccc34)CC2)c2nc(C#N)ccc21 [Example 415, 5-methyl-8-{4-[(naphthalen-1-yl)methyl]piperazin-1-yl}-7-nitro-6-oxo-5,6-dihydro-1,5-naphthyridine-2-carbonitrile] | 10000 nM | 650 nM |  |  |  |

From patent US11866430B2, “Naphthyridinone compounds useful as T cell activators” (priority 2018, dated 2024)
